Reference: ChEMBL document CHEMBL5058649, “Data for DCP probe BAY 1816032” (2022)

Assays:
[1] = target: NT-3 growth factor receptor (Homo sapiens) (UniProt Q16288); assay: TRKC DiscoveRx kinase panel; conditions: Compound concentration 1.0 uM
[2] = target: Serine/threonine-protein kinase SBK1 (Homo sapiens) (UniProt Q52WX2); assay: SBK1 DiscoveRx kinase panel; conditions: Compound concentration 1.0 uM
[3] = target: Ephrin type-A receptor 1 (Homo sapiens) (UniProt P21709); assay: EPHA1 DiscoveRx kinase panel; conditions: Compound concentration 1.0 uM
[4] = target: SNF-related serine/threonine-protein kinase (Homo sapiens) (UniProt Q9NRH2); assay: SNRK DiscoveRx kinase panel; conditions: Compound concentration 1.0 uM
[5] = target: Phosphatidylinositol 5-phosphate 4-kinase type-2 gamma (Homo sapiens) (UniProt Q8TBX8); assay: PIP5K2C DiscoveRx kinase panel; conditions: Compound concentration 1.0 uM
[6] = target: Leucine-rich repeat serine/threonine-protein kinase 2 (Homo sapiens) (UniProt Q5S007); assay: LRRK2 DiscoveRx kinase panel; conditions: Compound concentration 1.0 uM
[7] = target: Macrophage colony-stimulating factor 1 receptor (Homo sapiens) (UniProt P07333); assay: CSF1R DiscoveRx kinase panel; conditions: Compound concentration 1.0 uM
[8] = target: Serine/threonine-protein kinase Nek10 (Homo sapiens) (UniProt Q6ZWH5); assay: NEK10 DiscoveRx kinase panel; conditions: Compound concentration 1.0 uM
[9] = target: Calcium/calmodulin-dependent protein kinase kinase 1 (Homo sapiens) (UniProt Q8N5S9); assay: CAMKK1 DiscoveRx kinase panel; conditions: Compound concentration 1.0 uM
[10] = target: Tyrosine-protein kinase TXK (Homo sapiens) (UniProt P42681); assay: TXK DiscoveRx kinase panel; conditions: Compound concentration 1.0 uM
[11] = target: Aurora kinase C (Homo sapiens) (UniProt Q9UQB9); assay: AURKC DiscoveRx kinase panel; conditions: Compound concentration 1.0 uM
[12] = target: Phosphatidylinositol 4-phosphate 3-kinase C2 domain-containing subunit beta (Homo sapiens) (UniProt O00750); assay: PIK3C2B DiscoveRx kinase panel; conditions: Compound concentration 1.0 uM
[13] = target: Myotonin-protein kinase (Homo sapiens) (UniProt Q09013); assay: DMPK DiscoveRx kinase panel; conditions: Compound concentration 1.0 uM
[14] = target: Serine/threonine-protein kinase PAK 4 (Homo sapiens) (UniProt O96013); assay: PAK4 DiscoveRx kinase panel; conditions: Compound concentration 1.0 uM
[15] = target: Vasopressin V1a receptor (Homo sapiens) (UniProt P37288); assay: Vasopressin V1A Eurofins-Panlabs radioligand binding assay; conditions: Compound concentration 10.0 uM
[16] = target: Ribosomal protein S6 kinase beta-1 (Homo sapiens) (UniProt P23443); assay: S6K1 DiscoveRx kinase panel; conditions: Compound concentration 1.0 uM
[17] = target: Ephrin type-B receptor 3 (Homo sapiens) (UniProt P54753); assay: EPHB3 DiscoveRx kinase panel; conditions: Compound concentration 1.0 uM
[18] = target: Mitogen-activated protein kinase 6 (Homo sapiens) (UniProt Q16659); assay: ERK3 DiscoveRx kinase panel; conditions: Compound concentration 1.0 uM
[19] = target: Serine/threonine-protein kinase Nek6 (Homo sapiens) (UniProt Q9HC98); assay: NEK6 DiscoveRx kinase panel; conditions: Compound concentration 1.0 uM
[20] = target: Eukaryotic translation initiation factor 2-alpha kinase 1 (Homo sapiens) (UniProt Q9BQI3); assay: EIF2AK1 DiscoveRx kinase panel; conditions: Compound concentration 1.0 uM
[21] = target: D(2) dopamine receptor (Homo sapiens) (UniProt P14416); conditions: Compound concentration 10.0 uM
[22] = target: Activin receptor type-1 (Homo sapiens) (UniProt Q04771); assay: ACVR1 DiscoveRx kinase panel; conditions: Compound concentration 1.0 uM
[23] = target: 5-hydroxytryptamine receptor 1B (Homo sapiens) (UniProt P28222); conditions: Compound concentration 10.0 uM
[24] = target: Mitogen-activated protein kinase kinase kinase 20 (Homo sapiens) (UniProt Q9NYL2); assay: ZAK DiscoveRx kinase panel; conditions: Compound concentration 1.0 uM
[25] = target: cGMP-dependent protein kinase 2 (Homo sapiens) (UniProt Q13237); assay: PRKG2 DiscoveRx kinase panel; conditions: Compound concentration 1.0 uM
[26] = target: Serine/threonine-protein kinase Nek9 (Homo sapiens) (UniProt Q8TD19); assay: NEK9 DiscoveRx kinase panel; conditions: Compound concentration 1.0 uM
[27] = target: Serine/threonine-protein kinase Nek11 (Homo sapiens) (UniProt Q8NG66); assay: NEK11 DiscoveRx kinase panel; conditions: Compound concentration 1.0 uM
[28] = target: 5-hydroxytryptamine receptor 5A (Homo sapiens) (UniProt P47898); conditions: Compound concentration 10.0 uM
[29] = target: Myosin light chain kinase, smooth muscle (Homo sapiens) (UniProt Q15746); assay: MYLK DiscoveRx kinase panel; conditions: Compound concentration 1.0 uM
[30] = target: Muscarinic acetylcholine receptor M4 (Homo sapiens) (UniProt P08173); conditions: Compound concentration 10.0 uM
[31] = target: Tyrosine-protein kinase Lck (Homo sapiens) (UniProt P06239); assay: Inhibition of Protein Tyrosine Kinase, LCK at 10 µM in the Eurofins-Panlabs enzyme assay (Eurofins_assay_176020); conditions: Compound concentration 10.0 uM
[32] = target: SRSF protein kinase 1 (Homo sapiens) (UniProt Q96SB4); assay: SRPK1 DiscoveRx kinase panel; conditions: Compound concentration 1.0 uM
[33] = target: Calcium/calmodulin-dependent protein kinase type IV (Homo sapiens) (UniProt Q16566); assay: CAMK4 DiscoveRx kinase panel; conditions: Compound concentration 1.0 uM
[34] = target: Calcium/calmodulin-dependent protein kinase type 1B (Homo sapiens) (UniProt Q6P2M8); assay: CAMK1B DiscoveRx kinase panel; conditions: Compound concentration 1.0 uM
[35] = target: Serine/threonine-protein kinase Sgk3 (Homo sapiens) (UniProt Q96BR1); assay: SGK3 DiscoveRx kinase panel; conditions: Compound concentration 1.0 uM
[36] = target: Ribosomal protein S6 kinase alpha-2 (Homo sapiens) (UniProt Q15349); assay: RSK3(Kin.Dom.2-C-terminal) DiscoveRx kinase panel; conditions: Compound concentration 1.0 uM
[37] = target: Casein kinase I isoform delta (Homo sapiens) (UniProt P48730); assay: CSNK1D DiscoveRx kinase panel; conditions: Compound concentration 1.0 uM
[38] = target: Mitogen-activated protein kinase kinase kinase 2 (Homo sapiens) (UniProt Q9Y2U5); assay: MAP3K2 DiscoveRx kinase panel; conditions: Compound concentration 1.0 uM
[39] = target: Interleukin-1 receptor-associated kinase 4 (Homo sapiens) (UniProt Q9NWZ3); assay: IRAK4 DiscoveRx kinase panel; conditions: Compound concentration 1.0 uM
[40] = target: Melanocortin receptor 4 (Homo sapiens) (UniProt P32245); assay: Melanocortin MC4 Eurofins-Panlabs radioligand binding assay; conditions: Compound concentration 10.0 uM
[41] = target: Voltage-dependent N-type calcium channel subunit alpha-1B (Homo sapiens) (UniProt Q00975); assay: Inhibition of Calcium Channel N-Type at 10 µM in the Eurofins-Panlabs radioligand binding assay (Eurofins_assay_216000); conditions: Rattus norvegicus; Compound concentration 10.0 uM
[42] = target: Receptor-interacting serine/threonine-protein kinase 4 (Homo sapiens) (UniProt P57078); assay: RIPK4 DiscoveRx kinase panel; conditions: Compound concentration 1.0 uM
[43] = target: L-type calcium channel, benzothiazepine site (Cav1.2 alpha-1C) (Homo sapiens, UniProt Q13936); assay: Inhibition of Calcium Channel L-Type, Benzothiazepine at 10 µM in the Eurofins-Panlabs radioligand binding assay (Eurofins_assay_214510); design: ligand concentration 2 nM, non-specific ligand with concentration 10 µM Diltiazem, incubation time 3h, incubation temperature 4 °C; conditions: male, Wistar, rat, rat whole brain preparation, probe [3H] Diltiazem; compound concentration 10 uM; target entry is the homologue from another species
[44] = target: Serine/threonine-protein kinase pim-1 (Homo sapiens) (UniProt P11309); assay: PIM1 DiscoveRx kinase panel; conditions: Compound concentration 1.0 uM
[45] = target: Tyrosine-protein kinase ZAP-70 (Homo sapiens) (UniProt P43403); assay: ZAP70 DiscoveRx kinase panel; conditions: Compound concentration 1.0 uM
[46] = target: RAC-alpha serine/threonine-protein kinase (Homo sapiens) (UniProt P31749); assay: AKT1 DiscoveRx kinase panel; conditions: Compound concentration 1.0 uM
[47] = target: Dual specificity tyrosine-phosphorylation-regulated kinase 1B (Homo sapiens, UniProt Q9Y463); assay: DYRK1B DiscoveRx kinase panel

Serine/threonine-protein kinase pim-1 (Homo sapiens), sequence (P11309 whole entry, looked up): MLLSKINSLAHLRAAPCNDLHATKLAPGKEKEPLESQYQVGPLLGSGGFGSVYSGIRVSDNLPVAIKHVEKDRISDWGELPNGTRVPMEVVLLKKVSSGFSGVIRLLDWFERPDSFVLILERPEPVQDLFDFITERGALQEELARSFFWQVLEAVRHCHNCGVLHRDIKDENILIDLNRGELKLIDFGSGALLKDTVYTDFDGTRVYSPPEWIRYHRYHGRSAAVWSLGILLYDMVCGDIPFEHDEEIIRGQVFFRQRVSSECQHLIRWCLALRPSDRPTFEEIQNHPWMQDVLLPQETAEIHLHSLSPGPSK
L-type calcium channel, benzothiazepine site (Cav1.2 alpha-1C), sequence (Q13936 whole entry): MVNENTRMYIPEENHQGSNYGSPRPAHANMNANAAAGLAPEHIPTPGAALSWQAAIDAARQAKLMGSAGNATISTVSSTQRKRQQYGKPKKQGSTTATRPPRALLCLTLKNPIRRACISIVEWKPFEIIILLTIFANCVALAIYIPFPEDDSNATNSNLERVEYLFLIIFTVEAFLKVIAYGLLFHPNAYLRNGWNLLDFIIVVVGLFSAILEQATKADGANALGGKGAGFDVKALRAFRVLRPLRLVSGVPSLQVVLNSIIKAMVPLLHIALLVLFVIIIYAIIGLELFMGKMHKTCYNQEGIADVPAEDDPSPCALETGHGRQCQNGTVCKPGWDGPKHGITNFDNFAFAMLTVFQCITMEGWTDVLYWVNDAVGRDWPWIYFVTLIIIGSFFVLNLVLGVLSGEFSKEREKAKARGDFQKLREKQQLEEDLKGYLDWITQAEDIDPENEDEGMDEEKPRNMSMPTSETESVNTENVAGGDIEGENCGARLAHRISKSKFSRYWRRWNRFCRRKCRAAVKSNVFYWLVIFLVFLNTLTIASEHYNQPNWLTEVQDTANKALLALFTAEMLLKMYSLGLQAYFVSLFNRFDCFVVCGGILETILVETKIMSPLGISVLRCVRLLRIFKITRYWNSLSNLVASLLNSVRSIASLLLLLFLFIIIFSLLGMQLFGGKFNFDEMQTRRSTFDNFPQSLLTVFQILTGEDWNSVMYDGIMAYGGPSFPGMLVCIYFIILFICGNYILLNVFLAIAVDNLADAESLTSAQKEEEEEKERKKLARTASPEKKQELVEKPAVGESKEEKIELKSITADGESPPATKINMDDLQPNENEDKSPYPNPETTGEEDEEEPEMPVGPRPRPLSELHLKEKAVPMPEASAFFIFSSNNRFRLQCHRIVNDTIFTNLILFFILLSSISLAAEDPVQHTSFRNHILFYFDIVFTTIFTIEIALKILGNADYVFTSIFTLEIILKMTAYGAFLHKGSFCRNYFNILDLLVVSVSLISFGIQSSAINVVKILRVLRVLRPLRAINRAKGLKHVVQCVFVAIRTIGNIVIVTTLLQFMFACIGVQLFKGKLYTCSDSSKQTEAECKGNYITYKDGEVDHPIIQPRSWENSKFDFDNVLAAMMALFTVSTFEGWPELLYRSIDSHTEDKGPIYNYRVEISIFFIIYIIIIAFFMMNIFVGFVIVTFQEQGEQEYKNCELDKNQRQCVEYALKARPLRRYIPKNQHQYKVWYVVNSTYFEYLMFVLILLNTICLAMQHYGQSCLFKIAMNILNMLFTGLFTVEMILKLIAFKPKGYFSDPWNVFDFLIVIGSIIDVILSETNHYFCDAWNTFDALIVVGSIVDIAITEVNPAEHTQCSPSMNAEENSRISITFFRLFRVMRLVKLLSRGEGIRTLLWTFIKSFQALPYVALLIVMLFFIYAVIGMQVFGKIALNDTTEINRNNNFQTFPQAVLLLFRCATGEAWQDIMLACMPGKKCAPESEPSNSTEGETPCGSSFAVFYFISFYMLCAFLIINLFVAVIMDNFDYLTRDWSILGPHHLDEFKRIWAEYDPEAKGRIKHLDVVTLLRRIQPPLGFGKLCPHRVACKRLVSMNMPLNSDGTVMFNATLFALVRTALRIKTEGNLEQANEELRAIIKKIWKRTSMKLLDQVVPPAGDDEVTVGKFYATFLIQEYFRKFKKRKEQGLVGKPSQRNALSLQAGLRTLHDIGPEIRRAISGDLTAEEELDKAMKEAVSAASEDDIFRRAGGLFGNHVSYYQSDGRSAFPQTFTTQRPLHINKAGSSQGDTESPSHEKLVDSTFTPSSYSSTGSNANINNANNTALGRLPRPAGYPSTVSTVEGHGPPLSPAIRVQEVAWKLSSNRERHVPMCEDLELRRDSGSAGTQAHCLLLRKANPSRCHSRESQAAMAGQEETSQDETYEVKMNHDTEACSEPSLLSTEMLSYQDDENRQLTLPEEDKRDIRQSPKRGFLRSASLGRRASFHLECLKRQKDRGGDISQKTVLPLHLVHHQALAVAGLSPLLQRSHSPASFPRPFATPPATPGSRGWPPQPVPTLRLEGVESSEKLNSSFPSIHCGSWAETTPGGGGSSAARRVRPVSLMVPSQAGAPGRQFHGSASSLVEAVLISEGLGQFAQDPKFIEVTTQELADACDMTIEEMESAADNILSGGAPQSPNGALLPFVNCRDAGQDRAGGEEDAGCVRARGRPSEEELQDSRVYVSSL
Activin receptor type-1 (Homo sapiens), sequence (Q04771 whole entry): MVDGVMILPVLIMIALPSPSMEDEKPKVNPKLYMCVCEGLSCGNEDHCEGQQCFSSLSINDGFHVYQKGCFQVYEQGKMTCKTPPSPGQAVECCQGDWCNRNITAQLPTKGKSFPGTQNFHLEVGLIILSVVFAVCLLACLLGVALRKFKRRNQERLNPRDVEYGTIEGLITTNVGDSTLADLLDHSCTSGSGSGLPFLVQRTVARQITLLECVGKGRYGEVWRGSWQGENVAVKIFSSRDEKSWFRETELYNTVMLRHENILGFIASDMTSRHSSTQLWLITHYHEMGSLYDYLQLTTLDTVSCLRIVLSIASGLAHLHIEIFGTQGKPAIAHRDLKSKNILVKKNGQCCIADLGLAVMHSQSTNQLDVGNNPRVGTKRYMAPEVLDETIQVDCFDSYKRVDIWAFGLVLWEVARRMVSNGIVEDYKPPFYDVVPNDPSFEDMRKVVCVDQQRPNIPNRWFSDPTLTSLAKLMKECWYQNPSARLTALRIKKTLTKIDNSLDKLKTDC
5-hydroxytryptamine receptor 1B (Homo sapiens), sequence (P28222 whole entry): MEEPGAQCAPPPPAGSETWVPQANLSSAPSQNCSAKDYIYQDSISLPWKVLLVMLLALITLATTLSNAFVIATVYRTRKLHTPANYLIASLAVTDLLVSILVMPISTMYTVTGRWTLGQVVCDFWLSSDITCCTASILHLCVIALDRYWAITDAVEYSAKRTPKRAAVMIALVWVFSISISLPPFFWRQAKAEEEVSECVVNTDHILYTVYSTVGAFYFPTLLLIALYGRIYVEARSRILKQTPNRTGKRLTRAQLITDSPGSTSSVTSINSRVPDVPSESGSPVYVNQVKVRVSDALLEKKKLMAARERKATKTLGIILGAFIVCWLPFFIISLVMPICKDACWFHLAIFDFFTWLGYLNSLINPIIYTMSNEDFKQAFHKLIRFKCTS
Mitogen-activated protein kinase kinase kinase 20 (Homo sapiens), sequence (Q9NYL2 2-800 limits assumed): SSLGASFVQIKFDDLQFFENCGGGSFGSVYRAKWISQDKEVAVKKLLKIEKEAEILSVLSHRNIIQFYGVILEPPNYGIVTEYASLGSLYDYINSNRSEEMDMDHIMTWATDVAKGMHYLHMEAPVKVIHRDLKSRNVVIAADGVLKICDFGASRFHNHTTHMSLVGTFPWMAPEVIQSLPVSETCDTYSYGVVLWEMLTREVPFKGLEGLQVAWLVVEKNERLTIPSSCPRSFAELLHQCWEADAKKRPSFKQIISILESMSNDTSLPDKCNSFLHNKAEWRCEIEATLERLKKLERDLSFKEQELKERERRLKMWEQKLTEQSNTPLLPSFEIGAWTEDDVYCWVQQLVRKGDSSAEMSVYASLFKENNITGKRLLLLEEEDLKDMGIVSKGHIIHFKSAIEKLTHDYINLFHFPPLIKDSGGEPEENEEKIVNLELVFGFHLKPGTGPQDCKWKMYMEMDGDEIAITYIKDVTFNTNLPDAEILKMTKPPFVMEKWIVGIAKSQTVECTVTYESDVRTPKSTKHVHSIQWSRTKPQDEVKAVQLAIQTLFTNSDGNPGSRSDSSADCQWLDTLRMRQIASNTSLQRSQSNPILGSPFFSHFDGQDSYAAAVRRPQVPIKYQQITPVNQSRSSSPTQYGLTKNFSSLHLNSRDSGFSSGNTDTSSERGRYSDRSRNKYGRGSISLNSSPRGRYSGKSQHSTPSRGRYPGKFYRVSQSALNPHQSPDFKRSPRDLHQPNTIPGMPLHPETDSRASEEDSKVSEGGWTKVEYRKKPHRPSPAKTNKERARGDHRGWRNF
Muscarinic acetylcholine receptor M4 (Homo sapiens), sequence (P08173 whole entry): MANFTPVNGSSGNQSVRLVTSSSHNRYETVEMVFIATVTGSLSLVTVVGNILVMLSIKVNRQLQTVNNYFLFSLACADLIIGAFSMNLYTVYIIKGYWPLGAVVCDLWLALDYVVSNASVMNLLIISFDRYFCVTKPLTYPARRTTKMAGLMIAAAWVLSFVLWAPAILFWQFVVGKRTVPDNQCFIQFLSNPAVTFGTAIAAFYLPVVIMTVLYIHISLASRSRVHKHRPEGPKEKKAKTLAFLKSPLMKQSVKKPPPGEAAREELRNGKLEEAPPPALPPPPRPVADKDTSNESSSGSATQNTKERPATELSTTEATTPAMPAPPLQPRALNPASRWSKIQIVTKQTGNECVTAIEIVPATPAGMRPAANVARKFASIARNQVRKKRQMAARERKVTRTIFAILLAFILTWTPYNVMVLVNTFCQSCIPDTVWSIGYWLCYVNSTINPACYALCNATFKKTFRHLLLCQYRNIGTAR
Calcium/calmodulin-dependent protein kinase type 1B (Homo sapiens), sequence (Q6P2M8 whole entry): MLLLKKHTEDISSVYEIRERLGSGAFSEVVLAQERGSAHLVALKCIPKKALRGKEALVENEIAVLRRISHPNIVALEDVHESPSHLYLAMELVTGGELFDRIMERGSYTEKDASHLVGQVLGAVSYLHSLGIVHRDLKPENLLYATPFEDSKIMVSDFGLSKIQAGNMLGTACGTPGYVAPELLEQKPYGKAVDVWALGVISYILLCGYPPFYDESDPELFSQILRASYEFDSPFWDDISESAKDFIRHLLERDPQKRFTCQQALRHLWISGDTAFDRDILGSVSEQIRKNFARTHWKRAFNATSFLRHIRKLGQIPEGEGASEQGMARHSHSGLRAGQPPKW

Compound: COc1cnccc1Nc1nc(-c2nn(Cc3c(F)cc(OCCO)cc3F)c3ccccc23)ncc1OC
- residual activity [1]: 98%
- residual activity [2]: 100%
- residual activity [3]: 65%
- residual activity [4]: 96%
- residual activity [5]: 100%
- residual activity [6]: 100%
- residual activity [7]: 99%
- residual activity [8]: 100%
- residual activity [9]: 100%
- residual activity [10]: 64%
- residual activity [11]: 100%
- residual activity [12]: 100%
- residual activity [13]: 100%
- residual activity [14]: 82%
- inhibition [15]: 11%
- residual activity [16]: 100%
- residual activity [17]: 95%
- residual activity [18]: 93%
- residual activity [19]: 70%
- residual activity [20]: 87%
- inhibition [21]: 17%
- residual activity [22]: 98%
- inhibition [23]: 11.8%
- residual activity [24]: 42%
- residual activity [25]: 95%
- residual activity [26]: 82%
- residual activity [27]: 96%
- inhibition [28]: -6.97%
- residual activity [29]: 100%
- inhibition [30]: 8%
- inhibition [31]: 6%
- residual activity [32]: 90%
- residual activity [33]: 68%
- residual activity [34]: 95%
- residual activity [35]: 99%
- residual activity [36]: 100%
- residual activity [37]: 68%
- residual activity [38]: 97%
- residual activity [39]: 100%
- inhibition [40]: 10%
- inhibition [41]: 10%
- residual activity [42]: 70%
- inhibition at 3 h, 10 µM [43]: -10% (not active)
- residual activity [44]: 100%
- residual activity [45]: 100%
- residual activity [46]: 100%
- Kd [47]: > 30 µM
- residual activity ([47]; Compound concentration 1.0 uM): 6.7%
